Data on four compounds can be found in patent US20260256755A1, “COMBINATIONS FOR TREATMENT OF PARKINSON'S DISEASE AND OTHER PRIMARY AND SECONDARY PARKINSONIAN DISORDERS” (Kenai Therapeutics, Inc., priority 2023, published 2026).

Assay [1] relates to PGC-1a. In words: upregulation of PGC-1a, mode of action relevant to dopaminergic cells. The assay is classed as cell-based. The settings on record: for ability to upregulate PGC-1a: target relevant to dopaminergic cells and Parkinson's disease.
The test system of assay [2] is cerebral cortex. In words: Example 5: cortical lesion study, neuroprotection and inflammation. The class given is in vivo, long evans hooded rats. The settings on record: injected with DA neural cells.
From the text: Animals, Surgery, and histology: lesion studies will be conducted on 15 long evans hooded rats weighing 225-275 g. Twelve of these rats will be deeply anesthetized 10 with ketamine/xylazine and placed in a sterotaxic holder. A 4×2 mm (rostrocaudal×mediolateral) skull opening will be made on the right side starting just behind the coronal suture and centered at a mediolateral position of +2.5 mm relative to bregma. A dissecting knife will be penetrated through the dura and cortex in the center of this skull opening to a depth of 1 mm. The skull defect will be filled with bone wax, the skin sutured closed, and the animal placed on a heating pad. Twenty minutes later, 0.4 cc of solution containing 100 μg of 20 peptide (^~0.4 mg/kg, 6 rats) or DMEM vehicle (6 rats) will be injected under the skin of the shoulder near the midline. The rats will be perfused 4 days later and their brains processed for histology and immunohistochemistry as in previous studies. Three rats will be sacrificed without surgery or treatment. […] The density of ED-1+ ameboid microglia in the perilesion parencyma wound will be calculated after experimentally blinded counting of 4 fields (dorsal and ventral margins of the wound) in 2 sections through the lesion.
For assay [3], the system named is DA neural cells. In words: Example 2: stress test, medium change followed by serum deprivation. The assay is classed as cell-based. The settings on record: concentrations of 0.1 and 0.01 μM. From the text:
DA neural cell survival will be measured by either counting surviving attached DA neural cells or by colorimetric determination after applying an electrocoupling reagent that responds to chemical reactions in normal cellular respiration.

Assay [4] has as its system microglia. The settings on record: cited from earlier work.

Take `CC(C)(Oc1ccc(CCNC(=O)c2ccc(Cl)cc2)cc1)C(=O)O` [benzafibrate]: the “ability to upregulate PGC-1a” value in assay [1] was “unable to upregulate PGC-1a”.
In the case of `FC(F)(F)c1ccc(CNc2ccc(Cc3c[nH]c4ncc(Cl)cc34)cn2)cn1` [Pexidartinib], in assay [2], the “accumulation of inflammatory cells in the parenchyma” value is listed as “inhibited” and the “disruption of the cerebral cortex” value is “inhibited”. In assay [3], the “rescue of DA neural cells” value was “rescue DA neural cells”. Also, the “depletion of the microglia population” value in assay [4] (healthy brain) is given as “fast depletion of the microglia population”. Moreover, in assay [4] (in vivo), the survival of microglia result is reported as “inhibit the survival of microglia”.
On to `CCOC(=O)C(C)(C)Oc1ccc(Cl)cc1` [clorofibrate], for which the “ability to upregulate PGC-1a” value in assay [1] is “unable to upregulate PGC-1a”.
In the case of `CC(C)OC(=O)C(C)(C)Oc1ccc(C(=O)c2ccc(Cl)cc2)cc1` [fenofibrate], the “activity (active or not)” value in assay [1] (mode of action relevant to dopaminergic cells and Parkinson's disease) is listed as “active”.
